Experimental data as given in ChEMBL document CHEMBL1201862, “PubChem BioAssay data set” (2004).
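Five concentrations, 48 hours, 96-well plates. GI50 marks 50% less growth.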 Activity calls are given as the source filed them. No stated cut-off is given here; in the data, active = GI50 up to about 1.1 µM and inactive = higher.

Assays:
Assay in all cases: growth of human tumour cells (NCI), 48 h
CAKI-1 = tested on: CAKI-1
COLO 205 = tested on: COLO 205
HCC 2998 = tested on: HCC 2998
HOP-62 = tested on: HOP-62
K562 = tested on: K562
LOX IMVI = tested on: LOX IMVI
NCI-H226 = tested on: NCI-H226
RXF 393 = tested on: RXF 393
SK-MEL-2 = tested on: SK-MEL-2
SNB-19 = tested on: SNB-19
SR = tested on: SR
U-251 = tested on: U-251
UACC-62 = tested on: UACC-62
OVCAR-5 = tested on: OVCAR-5

SMILES	GI50 (CAKI-1)	GI50 (COLO 205)	GI50 (HCC 2998)	GI50 (HOP-62)	GI50 (K562)	GI50 (LOX IMVI)	GI50 (NCI-H226)	GI50 (RXF 393)	GI50 (SK-MEL-2)	GI50 (SNB-19)	GI50 (SR)	GI50 (U-251)	GI50 (UACC-62)	GI50 (OVCAR-5)
COc1ccc(S(=O)(=O)N/N=C/CN2C(=O)c3ccccc3C2=O)cc1	> 100 µM (inactive)	> 100 µM (inactive)	> 100 µM (inactive)	> 100 µM (inactive)	> 100 µM (inactive)	> 100 µM (inactive)	47 µM (inactive)	> 100 µM (inactive)	> 100 µM (inactive)	> 100 µM (inactive)	> 100 µM (inactive)	> 100 µM (inactive)	> 100 µM (inactive)	–
COC(=O)C1=C(c2cc(OC)c(OC)c(OC)c2)O[C@H](c2ccc3c(c2)OCO3)[C@H]1COC(C)=O	19.8 µM (inactive)	10.7 µM (inactive)	18.3 µM (inactive)	21.5 µM (inactive)	21.3 µM (inactive)	32.1 µM (inactive)	33 µM (inactive)	–	27.2 µM (inactive)	–	7.35 µM (inactive)	24.1 µM (inactive)	–	48.6 µM (inactive)
CCOC(=O)C(CCCNC(=O)OC(C)(C)C)N(Cc1ccc(OC)cc1OC)C(=O)CC(=O)CP(=O)(OCC)OCC (configuration not stated)	> 100 µM (inactive)	> 100 µM (inactive)	> 100 µM (inactive)	> 100 µM (inactive)	> 100 µM (inactive)	> 100 µM (inactive)	> 100 µM (inactive)	> 100 µM (inactive)	> 100 µM (inactive)	> 100 µM (inactive)	42.7 µM (inactive)	> 100 µM (inactive)	> 100 µM (inactive)	> 100 µM (inactive)
O=C1c2ccccc2N2OC3(N4CCCC4)CCCCC3C12c1ccccc1 (configuration not stated)	–	17.3 µM (inactive)	53 µM (inactive)	> 100 µM (inactive)	19.5 µM (inactive)	–	37.3 µM (inactive)	17.5 µM (inactive)	–	> 100 µM (inactive)	33.8 µM (inactive)	28.1 µM (inactive)	16.4 µM (inactive)	–
CCn1c2ccccc2c2c(-c3ccccc3)cc3c(c21)C(=O)N(c1ccccc1)C3=O	> 100 µM (inactive)	> 100 µM (inactive)	> 100 µM (inactive)	> 10 µM (inactive)	> 100 µM (inactive)	> 100 µM (inactive)	> 100 µM (inactive)	–	> 100 µM (inactive)	81.5 µM (inactive)	> 100 µM (inactive)	> 100 µM (inactive)	> 100 µM (inactive)	> 100 µM (inactive)
CCOC(=O)CNC(SC)=C(C#N)C#N	> 100 µM (inactive)	> 100 µM (inactive)	> 100 µM (inactive)	> 100 µM (inactive)	> 100 µM (inactive)	> 100 µM (inactive)	> 100 µM (inactive)	> 100 µM (inactive)	–	> 100 µM (inactive)	> 100 µM (inactive)	> 100 µM (inactive)	> 100 µM (inactive)	> 100 µM (inactive)
CCOC(=O)C(C(=O)OCC)=c1sc(=C(C(=O)OCC)C(=O)OCC)s1	> 100 µM (inactive)	> 100 µM (inactive)	> 100 µM (inactive)	> 100 µM (inactive)	> 100 µM (inactive)	> 100 µM (inactive)	–	> 100 µM (inactive)	> 100 µM (inactive)	–	–	–	> 100 µM (inactive)	> 100 µM (inactive)
CC(=O)OCc1c(O)nc2c(c1O)-c1ccccc1CC2	59.2 µM (inactive)	57 µM (inactive)	80.9 µM (inactive)	131 µM (inactive)	109 µM (inactive)	61.4 µM (inactive)	> 350 µM (inactive)	54.6 µM (inactive)	> 35 µM (inactive)	> 350 µM (inactive)	95.1 µM (inactive)	> 350 µM (inactive)	50.5 µM (inactive)	–
COc1cc(/C=C2\CCc3ccccc3C2=O)cc(OC)c1OC	16.1 µM (inactive)	17 µM (inactive)	18 µM (inactive)	21.5 µM (inactive)	8.43 µM (inactive)	11.9 µM (inactive)	18.6 µM (inactive)	14.6 µM (inactive)	15.8 µM (inactive)	15.8 µM (inactive)	3.86 µM (inactive)	16.1 µM (inactive)	14.3 µM (inactive)	14.4 µM (inactive)
Cc1[nH]c2c(C)cccc2c1C1Cc2ccccc2N1 (configuration not stated)	–	18.2 µM (inactive)	–	16.4 µM (inactive)	29.2 µM (inactive)	17.1 µM (inactive)	23.8 µM (inactive)	10.7 µM (inactive)	28.8 µM (inactive)	29.1 µM (inactive)	20.7 µM (inactive)	20 µM (inactive)	18.6 µM (inactive)	21.2 µM (inactive)
CCCCCCCCCCCCCC(=O)NCC(OCC)OCC	–	> 100 µM (inactive)	> 100 µM (inactive)	> 100 µM (inactive)	–	> 100 µM (inactive)	> 100 µM (inactive)	> 100 µM (inactive)	> 100 µM (inactive)	> 100 µM (inactive)	–	> 100 µM (inactive)	> 100 µM (inactive)	> 100 µM (inactive)
O=C(CCc1nnc2s/c(=C\c3ccc(Cl)cc3Cl)c(=O)n12)Nc1cc(Cl)c(Cl)cc1Cl	> 10 µM (inactive)	> 10 µM (inactive)	> 100 µM (inactive)	> 10 µM (inactive)	> 10 µM (inactive)	> 10 µM (inactive)	> 10 µM (inactive)	> 10 µM (inactive)	> 10 µM (inactive)	> 10 µM (inactive)	> 10 µM (inactive)	72.4 µM (inactive)	> 10 µM (inactive)	> 10 µM (inactive)
COc1ccc(C(Cc2cc(OC)c(OC)c(OC)c2)C(=O)O)cc1 (configuration not stated)	64.1 µM (inactive)	> 100 µM (inactive)	> 100 µM (inactive)	> 100 µM (inactive)	40.4 µM (inactive)	> 100 µM (inactive)	13.6 µM (inactive)	–	52 µM (inactive)	62.7 µM (inactive)	–	> 100 µM (inactive)	31.2 µM (inactive)	> 100 µM (inactive)
COc1ccc(NC(=O)c2oc3cc(O)ccc3c(=O)c2C)c([N+](=O)[O-])c1	> 100 µM (inactive)	> 100 µM (inactive)	> 100 µM (inactive)	> 100 µM (inactive)	> 100 µM (inactive)	> 100 µM (inactive)	> 100 µM (inactive)	> 100 µM (inactive)	> 100 µM (inactive)	> 100 µM (inactive)	> 100 µM (inactive)	> 100 µM (inactive)	> 100 µM (inactive)	> 100 µM (inactive)
COCC1N=C(c2cc(OC)c(OC)c(OC)c2-c2cc3c(cc2C2OCCCO2)OCO3)O[C@H]1c1ccccc1 (some centres not stated)	79.4 µM (inactive)	–	> 100 µM (inactive)	> 100 µM (inactive)	> 100 µM (inactive)	> 100 µM (inactive)	> 100 µM (inactive)	> 100 µM (inactive)	> 100 µM (inactive)	> 100 µM (inactive)	–	> 100 µM (inactive)	> 100 µM (inactive)	> 100 µM (inactive)
O=c1c2cc3c(cc2c2cccc4c2n1CCC4)OCO3	78.9 µM (inactive)	26.3 µM (inactive)	26.6 µM (inactive)	56.8 µM (inactive)	45.8 µM (inactive)	42.9 µM (inactive)	> 100 µM (inactive)	28.4 µM (inactive)	> 100 µM (inactive)	44.7 µM (inactive)	29.2 µM (inactive)	23.1 µM (inactive)	46.2 µM (inactive)	58.7 µM (inactive)
Cc1c(CC/C(=N\Nc2ccc([N+](=O)[O-])cc2[N+](=O)[O-])c2ccccc2)c2ccccc2n1C	> 100 µM (inactive)	> 100 µM (inactive)	> 100 µM (inactive)	> 100 µM (inactive)	27.4 µM (inactive)	> 100 µM (inactive)	> 100 µM (inactive)	> 46.1 µM (inactive)	> 100 µM (inactive)	> 94.4 µM (inactive)	–	> 100 µM (inactive)	> 100 µM (inactive)	> 100 µM (inactive)
CN1CCc2ccccc2C(C(=O)c2ccc3c(c2)OCO3)C1=O (configuration not stated)	> 100 µM (inactive)	> 100 µM (inactive)	–	> 100 µM (inactive)	> 100 µM (inactive)	> 100 µM (inactive)	99.5 µM (inactive)	> 100 µM (inactive)	> 100 µM (inactive)	> 100 µM (inactive)	–	> 100 µM (inactive)	> 100 µM (inactive)	–
CCOC(=O)C(=O)Nc1nc2ccc(C)cc2s1	> 100 µM (inactive)	> 100 µM (inactive)	> 100 µM (inactive)	> 100 µM (inactive)	> 100 µM (inactive)	–	> 100 µM (inactive)	–	> 100 µM (inactive)	> 100 µM (inactive)	> 100 µM (inactive)	> 100 µM (inactive)	> 100 µM (inactive)	> 100 µM (inactive)
CCOC(=O)NNC(=O)NC12CC3CC(CC(C3)C1)C2	> 100 µM (inactive)	> 100 µM (inactive)	> 100 µM (inactive)	> 100 µM (inactive)	> 100 µM (inactive)	> 100 µM (inactive)	> 100 µM (inactive)	> 100 µM (inactive)	> 100 µM (inactive)	> 100 µM (inactive)	–	> 100 µM (inactive)	> 100 µM (inactive)	> 100 µM (inactive)
C/C(=N\NC(=S)N1CCCCCC1)c1nccnc1C	0.155 µM (active)	< 0.01 µM (active)	7.36 µM (inactive)	35.3 µM (inactive)	0.055 µM (active)	< 0.01 µM (active)	–	0.231 µM (active)	12.8 µM (inactive)	–	–	0.2 µM (active)	< 0.01 µM (active)	0.169 µM (active)
COC(=O)/C=C1/CCC(C(=O)OC)N1 (configuration not stated)	> 100 µM (inactive)	> 100 µM (inactive)	> 100 µM (inactive)	> 100 µM (inactive)	> 100 µM (inactive)	> 100 µM (inactive)	–	> 100 µM (inactive)	> 100 µM (inactive)	> 100 µM (inactive)	> 100 µM (inactive)	> 100 µM (inactive)	> 100 µM (inactive)	–
